Where a name gives a salt, the structure may show the parent alone.
molecular target: 5HT3a receptor expressed in HEK-293T cells (Homo sapiens (Human), UniProt P46098); assay: Inhibition of Ca flux activity of 5HT3 in vitro assay; type: cell-based; conditions: calcium flux, 5HT 216 nM, approximate values
How it was run: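 HEK-293T cells transiently transfected with human 5HT3a, loaded 1 hour at 37° C with calcium dye in HBSS/20 mM HEPES, preincubated with compound (10^−7 to 10^−10, half-log) 10 minutes at room temperature.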

Sequence of 5HT3a receptor expressed in HEK-293T cells (P46098 24-478): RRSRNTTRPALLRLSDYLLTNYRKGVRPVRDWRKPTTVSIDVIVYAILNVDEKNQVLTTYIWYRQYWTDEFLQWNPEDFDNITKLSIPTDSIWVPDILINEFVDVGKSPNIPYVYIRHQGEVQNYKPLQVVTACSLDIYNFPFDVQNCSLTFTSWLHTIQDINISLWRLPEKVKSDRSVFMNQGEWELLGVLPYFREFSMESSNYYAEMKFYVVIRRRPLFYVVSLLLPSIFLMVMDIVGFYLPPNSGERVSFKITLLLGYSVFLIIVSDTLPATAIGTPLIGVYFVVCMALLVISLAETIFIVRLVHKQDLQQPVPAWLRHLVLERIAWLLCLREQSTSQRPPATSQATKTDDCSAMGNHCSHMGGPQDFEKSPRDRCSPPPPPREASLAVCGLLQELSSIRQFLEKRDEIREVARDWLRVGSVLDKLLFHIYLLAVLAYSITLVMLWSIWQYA

Compound	IC50 [nM]
Cn1ccc(-n2cc(C(=O)O[C@H]3C[C@H]4COC[C@@H](C3)N4)c3ccccc32)cc1=O [Example 168, 1R,5S,7s)-3-oxa-9-azabicyclo[3.3.1]nonan-7-yl 1-(1-methyl-2-oxo-1,2-dihydropyridin-4-yl)-1H-indole-3-carboxylate, 2,2,2-trifluoroacetic acid salt]	1.17
CN1[C@@H]2COC[C@H]1CC(NC(=O)c1cn(-c3ncccn3)c3ccccc13)C2 (stereo partly drawn) [Example 107, N-((1R,5S,7S)-9-methyl-3-oxa-9-azabicyclo[3.3.1]nonan-7-yl)-1-(pyrimidin-2-yl)-1H-indole-3-carboxamide, 2,2,2-trifluoroacetate]	1.1
CN1[C@@H]2CC[C@H]1CC(OC(=O)c1c(Cl)n(CC(F)F)c3ccccc13)C2 (stereo partly drawn) [Example 43, (1R,3R,5S)-8-methyl-8-azabicyclo[3.2.1]octan-3-yl 2-chloro-1-(2,2-difluoroethyl)-1H-indole-3-carboxylate, 2,2,2-trifluoroacetate]	1.02
CN1[C@@H]2CCC[C@H]1CC(NC(=O)c1cn(CC(F)F)c3ccc(F)cc13)C2 (stereo partly drawn) [Example 98, 1-(2,2-difluoroethyl)-5-fluoro-N-((1R,3R,5S)-9-methyl-9-azabicyclo[3.3.1]nonan-3-yl)-1H-indole-3-carboxamide, 2,2,2-trifluoroacetate]	5.45
CN1C2COCC1CC(NC(=O)c1cn(-c3cncs3)c3ncccc13)C2 [Example 148, N-((1R,5S,7s)-9-methyl-3-oxa-9-azabicyclo[3.3.1]nonan-7-yl)-1-(thiazol-5-yl)-1H-pyrrolo[2,3-b]pyridine-3-carboxamide, 2,2,2-trifluoroacetic acid salt]	0.4
CN1[C@@H]2COC[C@H]1CC(OC(=O)c1cn(S(C)(=O)=O)c3ccc(F)cc13)C2 (stereo partly drawn) [Example 99, (1R,5S,7S)-9-methyl-3-oxa-9-azabicyclo[3.3.1]nonan-7-yl 5-fluoro-1-(methylsulfonyl)-1H-indole-3-carboxylate, 2,2,2-trifluoroacetate]	0.29
O=C(OC1CC2COCC(C1)N2)c1cn(CC(F)(F)F)c2ccc(F)cc12 [Example 59, (1R,5S,7S)-3-oxa-9-azabicyclo[3.3.1]nonan-7-yl 5-fluoro-1-(2,2,2-trifluoroethyl)-1H-indole-3-carboxylate, 2,2,2-trifluoroacetate]	2.36
O=C(O[C@H]1C[C@H]2COC[C@@H](C1)N2)c1cn(-c2ncco2)c2ccccc12 [Example 177, (1R,5S,7s)-3-oxa-9-azabicyclo[3.3.1]nonan-7-yl 1-(oxazol-2-yl)-1H-indole-3-carboxylate, 2,2,2-trifluoroacetic acid salt]	3.22
Cc1c(C(=O)OC2C[C@H]3CCC[C@@H](C2)N3C)c2ccccc2n1CCF (stereo partly drawn) [Example 88, (1R,3R,5S)-9-methyl-9-azabicyclo[3.3.1]nonan-3-yl 1-(2-fluoroethyl)-2-methyl-1H-indole-3-carboxylate, 2,2,2-trifluoroacetate]	0.22
CC(C)S(=O)(=O)n1cc(C(=O)OC2C[C@H]3COC[C@@H](C2)N3)c2cc(F)ccc21 (stereo partly drawn) [Example 54, (1R,5S,7S)-3-oxa-9-azabicyclo[3.3.1]nonan-7-yl 5-fluoro-1-(isopropylsulfonyl)-1H-indole-3-carboxylate, 2,2,2-trifluoroacetate]	5.61
CS(=O)(=O)n1cc(C(=O)O[C@H]2C[C@H]3COC[C@@H](C2)N3)c2cc(F)ccc21 [Example 132, (1R,5S,7S)-3-oxa-9-azabicyclo[3.3.1]nonan-7-yl 5-fluoro-1-(methylsulfonyl)-1H-indole-3-carboxylate, 2,2,2-trifluoroacetate]	2.3
CN1[C@@H]2CC[C@H]1CC(OC(=O)c1cn(CC(F)(F)F)c3ccccc13)C2 (stereo partly drawn) [Example 95, (1R,3R,5S)-8-methyl-8-azabicyclo[3.2.1]octan-3-yl 1-(2,2,2-trifluoroethyl)-1H-indole-3-carboxylate, 2,2,2-trifluoroacetate]	0.89
CN1[C@@H]2COC[C@H]1CC(NC(=O)c1cn(C(F)C(F)(F)F)c3ncccc13)C2 (stereo partly drawn) [Example 81, N-((1R,5S,7S)-9-methyl-3-oxa-9-azabicyclo[3.3.1]nonan-7-yl)-1-(1,2,2,2-tetrafluoroethyl)-1H-pyrrolo[2,3-b]pyridine-3-carboxamide, 2,2,2-trifluoroacetate]	1.44
CN1[C@@H]2CCC[C@H]1CC(NC(=O)c1cn(CC(F)F)c3ncccc13)C2 (stereo partly drawn) [Example 77, 1-(2,2-difluoroethyl)-N-((1R,3R,5S)-9-methyl-9-azabicyclo[3.3.1]nonan-3-yl)-1H-pyrrolo[2,3-b]pyridine-3-carboxamide, 2,2,2-trifluoroacetate]	10.5
N-((1R,5S,7S)-3-oxa-9-azabicyclo[3.3.1]nonan-7-yl)-5-fluoro-1-(2,2,2-trifluoroethyl)-1H-indole-3-carboxamide 2,2,2-trifluoroacetate [Example 17]	4.39
O=C(NC1C[C@H]2COC[C@@H](C1)N2)c1cn(CC(F)(F)F)c2ncccc12 (stereo partly drawn) [Example 38, N-((1R,5S,7S)-3-oxa-9-azabicyclo[3.3.1]nonan-7-yl)-1-(2,2,2-trifluoroethyl)-1H-pyrrolo[2,3-b]pyridine-3-carboxamide, 2,2,2-trifluoroacetate]	1.82
CN1C2COCC1CC(NC(=O)c1cn(-c3cncnc3)c3ccccc13)C2 [Example 120, N-((1R,5S,7S)-9-methyl-3-oxa-9-azabicyclo[3.3.1]nonan-7-yl)-1-(pyrimidin-5-yl)-1H-indole-3-carboxamide, 2,2,2-trifluoroacetate]	0.39
CN1C2COCC1CC(NC(=O)c1cn(CC#N)c3ccccc13)C2 [Example 159, 1-(cyanomethyl)-N-((1R,5S,7s)-9-methyl-3-oxa-9-azabicyclo[3.3.1]nonan-7-yl)-1H-indole-3-carboxamide, 2,2,2-trifluoroacetic acid salt]	0.298
CN1[C@@H]2CC[C@H]1CC(OC(=O)c1cn(CC(F)F)c3ncccc13)C2 (stereo partly drawn) [Example 72, (1R,3R,5S)-8-methyl-8-azabicyclo[3.2.1]octan-3-yl 1-(2,2-difluoroethyl)-1H-pyrrolo[2,3-b]pyridine-3-carboxylate, 2,2,2-trifluoroacetate]	3.59
(1R,5S,7s)-3-oxa-9-azabicyclo[3.3.1]nonan-7-yl 1-(pyrazin-2-yl)-1H-indole-3-carboxylate, 2,2,2-trifluoroacetic acid salt [Example 27]	0.89
CN1[C@@H]2COC[C@H]1C[C@@H](NC(=O)c1cn(-c3nccs3)c3ncccc13)C2 [Example 146, N-((1R,5S,7s)-9-methyl-3-oxa-9-azabicyclo[3.3.1]nonan-7-yl)-1-(thiazol-2-yl)-1H-pyrrolo[2,3-b]pyridine-3-carboxamide, 2,2,2-trifluoroacetic acid salt]	0.702
(1R,5S,7s)-3-oxa-9-azabicyclo[3.3.1]nonan-7-yl 1-(2-cyanophenyl)-1H-indole-3-carboxylate, 2,2,2-trifluoroacetic acid salt [Example 28]	1.08
CCS(=O)(=O)n1cc(C(=O)OC2C[C@H]3COC[C@@H](C2)N3)c2ccccc21 (stereo partly drawn) [Example 133, (1R,5S,7S)-3-oxa-9-azabicyclo[3.3.1]nonan-7-yl 1-(ethylsulfonyl)-1H-indole-3-carboxylate, 2,2,2-trifluoroacetate]	1.5

Source: US9303045B2, “5-HT3 receptor antagonists” (Takeda Pharmaceutical Company Limited, priority 2013, dated 2016)
